In patent US11634417B2 (Array BioPharma Inc., priority 2019, dated 2023):
Counter-ions that a name gives are not always drawn.

Columns and labels:
[1] = tested on: ERK1/2 (Thr202/Tyr204) phosphorylation in KYSE520 cells; assay: Cellular Phospho-p44/42 MAPK (Erk1/2) (Thr202/Tyr204) assay, In-Cell Western; format: cell-based; settings: Homo sapiens, KYSE-520; KYSE520 cells, 1 hour incubation, pERK signal normalized to GAPDH; single assay or mean of multiple assays; read-out: Biological Example 2 IC50
Procedure: Inhibition of ERK1/2 (Thr202/Tyr204) phosphorylation was determined by the following cellular assay, which comprises incubating cells with a compound for 1 hour and quantifying pERK signal by In-Cell Western on fixed cells and normalizing to GAPDH signal. KYSE520 cells were obtained from DSMZ and grown in RPMI supplemented with 10% fetal bovine serum, penicillin/streptomycin, 2 mM L-alanyl-L-glutamine dipeptide in 0.85% NaCl (Glutamax™), non-essential amino acids, and sodium pyruvate. Cells were plated in 96-well plates at 30,000 cells/well and allowed to attach overnight at 37° C./5% CO2. Cells were treated with compounds prepared as a 10-point, 1:3 dilution series (range: 20 μM-1 nM), with a final DMSO concentration of 0.5%. After 1 hour incubation, cells were fixed in 3.7% formaldehyde in Dulbecco's phosphate-buffered saline (“dPBS”) at room temperature for 20 minutes. Cells were then washed with dPBS and permeabilized in 100% MeOH at room temperature for 10 minutes. Following permeabilization, cells were washed in dPBS and incubated in LI-COR Blocking Buffer (LI-COR Biosciences, Cat #927-40000) for 1 hour or longer. Plates were then incubated with an antibody specific for the MEK-dependent ERK1/2 phosphorylation sites, threonine 202 and tyrosine 204 (Cell Signaling Technologies; Cat #9101), downstream of SHP2 in the MAP kinase signal transduction pathway, as well as GAPDH (Millipore; Cat #MAB374). pErk1/2 (Thr202/Tyr204) antibody was diluted in LI-COR blocking buffer containing 0.05% polysorbate-20 (Tween-20) at 1:250; GAPDH was diluted at 1:2,500. The plates were incubated overnight at 4° C. After washing with PBS/0.05% Tween-20, the cells were incubated with fluorescently-labeled secondary antibodies (Anti-rabbit-Alexa Flour680, Invitrogen Cat #A21109; Anti-mouse-IRDye800CW, Li-cor Bioscieces Cat #926-32210, both at 1:1000 dilution) for 1 hour. Cells were then washed, as above, and analyzed for fluorescence at both 680 nm and 800 nm wavelengths using the Aerius Infrared Imaging System (LI-COR Biosciences, Model 9250). Phosphorylated Erk1/2 ([…]) signal was normalized to GAPDH signal for each well. IC50 values were calculated from the normalized values using a 4-parameter fit in BioAssay software. The reported IC50 in Table 2 may be from a single assay or the mean of multiple assays.

full-length SHP2 = biological target: T1, full-length SHP2 (Homo sapiens, UniProt Q06124); assay: SHP2 enzymatic assay (fluorescence intensity kinetic assay, DiFMUP hydrolysis); format: biochemical; settings: 1 nM His6-tagged SHP2(2-527), 1 μM activating peptide, 50 μM DiFMUP; single assay or mean of multiple assays; read-out: Biological Example 1 IC50
T1 construct: 1 nM full-length SHP2 (His6-tagged SHP2(2-527), recombinantly expressed in E. coli and purified in-house); His6; made in house; host or cells: E. coli
T1 sequence (Q06124 2-527): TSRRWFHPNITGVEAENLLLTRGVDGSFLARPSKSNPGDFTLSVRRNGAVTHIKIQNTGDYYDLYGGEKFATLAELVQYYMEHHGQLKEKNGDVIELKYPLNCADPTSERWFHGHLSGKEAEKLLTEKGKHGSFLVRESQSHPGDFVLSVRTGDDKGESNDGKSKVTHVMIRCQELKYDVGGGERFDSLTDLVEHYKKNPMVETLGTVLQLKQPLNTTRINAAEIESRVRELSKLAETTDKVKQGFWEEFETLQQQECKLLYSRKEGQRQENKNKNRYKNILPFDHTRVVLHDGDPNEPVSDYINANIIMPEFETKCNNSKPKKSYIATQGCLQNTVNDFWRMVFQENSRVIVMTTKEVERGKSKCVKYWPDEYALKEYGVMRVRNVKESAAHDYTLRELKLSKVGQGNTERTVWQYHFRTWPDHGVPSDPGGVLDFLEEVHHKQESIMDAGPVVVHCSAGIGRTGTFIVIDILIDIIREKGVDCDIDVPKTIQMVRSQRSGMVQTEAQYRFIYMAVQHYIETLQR
Procedure: A fluorescence intensity kinetic assay was configured for full-length SHP2 that monitors the amount of 6,8-difluoro-7-hydroxy-4-methylcoumarin (“DiFMU”) formed upon hydrolysis of 6,8-difluoro-4-methylumbelliferyl phosphate (“DiFMUP”) by SHP2. […] Low control wells lacked enzyme. The assays were initiated by the addition of a mixture of SHP2 and the activating peptide, and following a 15 second mix on an orbital shaker, were read in kinetic mode for 15 minutes (30 seconds/cycle) at ambient temperature on a PerkinElmer EnVision microplate reader (kEx=355 nm, kEm=460 nm). Initial velocities (slopes of the tangents at t=0) were estimated from exponential fits to the slightly nonlinear progress curves and then were converted to percent of control (“POC”) using the following equation:
[formula] • Where: xmax Average Uninhibited Controls • Xmin Average Background A 4-parameter logistic model was the fit to the POC data for each compound. From that fit, the IC50 was estimated and is defined as the concentration of compound at which the curve crosses 50 POC.

SMILES	IC50 (full-length SHP2) [nM]	IC50 [1] [nM]
C[C@@H]1OCC2(CCN(c3ncc(Sc4c(Cl)cnc5[nH]ccc45)nn3)CC2)[C@@H]1N [Example 9, (3S,4S)-8-(6-((5-chloro-1H-pyrrolo[2,3-b]pyridin-4-yl)thio)-1,2,4-triazin-3-yl)-3-methyl-2-oxa-8-azaspiro[4.5]decan-4-amine]	358	699
CC1(N)CCCN(c2ncc(Sc3ccnc(N)c3Cl)nn2)CC1 (stereo not drawn) [Example 10, 1-(6-((2-amino-3-chloropyridin-4-yl)thio)-1,2,4-triazin-3-yl)-4-methylazepan-4-amine]	551	687
CC1(N)CCCN(c2ncc(Sc3cccc(Cl)c3Cl)nn2)CC1 (stereo not drawn) [Example 11, 1-(6-((2,3-dichlorophenyl)thio)-1,2,4-triazin-3-yl)-4-methylazepan-4-amine]	210	1970
NC1C[C@@H]2CC[C@@H](C1)N2c1ncc(Sc2cccc(Cl)c2Cl)nn1 (stereo partly drawn) [Example 12, (1R,3s,5S)-8-(6-((2,3-dichlorophenyl)thio)-1,2,4-triazin-3-yl)-8-azabicyclo[3.2.1]octan-3-amine]	174	1110
Cc1nc(N2CCC3(CC2)CO[C@@H](C)[C@H]3N)nnc1Sc1cccc(Cl)c1Cl [Example 13, (3S,4S)-8-(6-((2,3-dichlorophenyl)thio)-5-methyl-1,2,4-triazin-3-yl)-3-methyl-2-oxa-8-azaspiro[4.5]decan-4-amine]	141	1030
Cc1nccc(Sc2cnc(N3CCC4(CC3)CO[C@@H](C)[C@H]4N)nn2)c1Cl [Example 14, (3S,4S)-8-(6-((3-chloro-2-methylpyridin-4-yl)thio)-1,2,4-triazin-3-yl)-3-methyl-2-oxa-8-azaspiro[4.5]decan-4-amine]	53	61
Nc1nccc(Sc2cnc(N3CCC4(CC3)Cc3ncccc3[C@@H]4N)nn2)c1Cl [Example 16, (R)-1′-(6-((2-amino-3-chloropyridin-4-yl)thio)-1,2,4-triazin-3-yl)-5,7-dihydrospiro[cyclopenta[b]pyridine-6,4′-piperidin]-5-amine trihydrochloride]	175	49
Nc1nccc(Sc2cnc(N3CCC4(CC3)Cc3cc(Cl)ccc3[C@H]4N)nn2)c1Cl [Example 17, (S)-1′-(6-((2-amino-3-chloropyridin-4-yl)thio)-1,2,4-triazin-3-yl)-5-chloro-1,3-dihydrospiro[indene-2,4′-piperidin]-1-amine]	25	9
Nc1cc(Sc2cnc(N3CCC4(CC3)Cc3ccccc3[C@H]4N)nn2)c(Cl)cn1 [Example 18, (S)-1′-(6-((2-amino-5-chloropyridin-4-yl)thio)-1,2,4-triazin-3-yl)-1,3-dihydrospiro[indene-2,4′-piperidin]-1-amine]	15	8
Nc1nccc(Sc2cnc(N3CCC4(CC3)Cc3ccccc3[C@H]4N)nn2)c1C1CC1 [Example 19, (S)-1′-(6-((2-amino-3-cyclopropylpyridin-4-yl)thio)-1,2,4-triazin-3-yl)-1,3-dihydrospiro[indene-2,4′-piperidin]-1-amine]	44	208
Nc1ccc(Oc2cnc(N3CCC4(CC3)Cc3ccccc3[C@H]4N)nn2)cn1 [Example 22, (S)-1′-(6-((6-aminopyridin-3-yl)oxy)-1,2,4-triazin-3-yl)-1,3-dihydrospiro[indene-2,4′-piperidin]-1-amine]	32	17

Second part, led by results:

IC50 (full-length SHP2) [nM]	SMILES	IC50 [1] [nM]
35	Nc1nccc(Sc2cnc(N3CCC4(CC3)Oc3ccccc3[C@H]4N)nn2)c1Cl [Example 23, (R)-1′-(6-((2-amino-3-chloropyridin-4-yl)thio)-1,2,4-triazin-3-yl)-3H-spiro[benzofuran-2,4′-piperidin]-3-amine]	12
47	Nc1nccc(Sc2cnc(N3CCC4(CC3)Cc3ncccc3[C@H]4N)nn2)c1Cl [Example 24, (S)-1′-(6-((2-amino-3-chloropyridin-4-yl)thio)-1,2,4-triazin-3-yl)-5,7-dihydrospiro[cyclopenta[b]pyridine-6,4′-piperidin]-5-amine]	5
26	N[C@@H]1c2ccccc2CC12CCN(c1ncc(Sc3ccnc4c3C(F)(F)C(=O)N4)nn1)CC2 [Example 25, (S)-4-((3-(1-amino-1,3-dihydrospiro[indene-2,4′-piperidin]-1′-yl)-1,2,4-triazin-6-yl)thio)-3,3-difluoro-1,3-dihydro-2H-pyrrolo[2,3-b]pyridin-2-one]	2
49	N[C@@H]1c2ccccc2CC12CCN(c1ncc(Sc3c[nH]c4ncccc34)nn1)CC2 [Example 26, (S)-1′-(6-((1H-pyrrolo[2,3-b]pyridin-3-yl)thio)-1,2,4-triazin-3-yl)-1,3-dihydrospiro[indene-2,4′-piperidin]-1-amine]	120
17	N[C@@H]1c2ccccc2CC12CCN(c1ncc(Sc3n[nH]c4ncccc34)nn1)CC2 [Example 27, (S)-1′-(6-((1H-pyrazolo[3,4-b]pyridin-3-yl)thio)-1,2,4-triazin-3-yl)-1,3-dihydrospiro[indene-2,4′-piperidin]-1-amine]	11
879	N[C@@H]1c2ccccc2CC12CCN(c1ncc(Oc3cccc4cnccc34)nn1)CC2 [Example 28, (S)-1′-(6-(isoquinolin-5-yloxy)-1,2,4-triazin-3-yl)-1,3-dihydrospiro[indene-2,4′-piperidin]-1-amine]	1140
96	C[C@@H]1OCC2(CCN(c3ncc(Sc4ccnc5c4ccn5C)nn3)CC2)[C@@H]1N [Example 29, (3S,4S)-3-methyl-8-(6-((1-methyl-1H-pyrrolo[2,3-b]pyridin-4-yl)thio)-1,2,4-triazin-3-yl)-2-oxa-8-azaspiro[4.5]decan-4-amine]	206
22	N[C@@H]1c2ccccc2CC12CCN(c1ncc(Sc3ccnc4[nH]ccc34)nn1)CC2 [Example 30, (S)-1′-(6-((1H-pyrrolo[2,3-b]pyridin-4-yl)thio)-1,2,4-triazin-3-yl)-1,3-dihydrospiro[indene-2,4′-piperidin]-1-amine]	2
23	N[C@@H]1c2ccccc2CC12CCN(c1ncc(-c3ccccc3Cl)nn1)CC2 [Example 31, (S)-1′-(6-(2-chlorophenyl)-1,2,4-triazin-3-yl)-1,3-dihydrospiro[indene-2,4′-piperidin]-1-amine]	424
5	N[C@@H]1c2ccccc2CC12CCN(c1ncc(Sc3ccccc3)nn1)CC2 [Example 32, (S)-1′-(6-(phenylthio)-1,2,4-triazin-3-yl)-1,3-dihydrospiro[indene-2,4′-piperidin]-1-amine]	14
